Active and inactive are the calls of the source. The rule behind the calls is not given here.
Legend:
MCF7 [1] = assay: Cell cycle arrest in human MCF7 cells assessed as accumulation at S phase at 1 uM after 48 hrs by propidium iodide staining based flow cytometry (reference value: 41.55%); type: functional
MCF7 [2] = assay: Induction of apoptosis in human MCF7 cells assessed as necrotic cells at 5 uM after 48 hrs by Annexin-V FITC/propidium iodide staining based flow cytometry (reference value: 4.69%); type: functional
MCF7 [3] = assay: Induction of apoptosis in human MCF7 cells assessed as early apoptotic cells at 10 uM after 48 hrs by Annexin-V FITC/propidium iodide staining based flow cytometry (reference value: 0.50%); type: functional
MCF7 [4] = assay: Induction of apoptosis in human MCF7 cells assessed as viable cells at 1 uM after 48 hrs by Annexin-V FITC/propidium iodide staining based flow cytometry (reference value: 88.59%); type: functional; conditions: MCF7, 48 h, read-out: Activity
MCF7 [5] = assay: Cell cycle arrest in human MCF7 cells assessed as accumulation at G1 phase at 5 uM after 48 hrs by propidium iodide staining based flow cytometry (reference value: 45.21%); type: functional
MCF7 [6] = assay: Cell cycle arrest in human MCF7 cells assessed as accumulation at S phase at 10 uM after 48 hrs by propidium iodide staining based flow cytometry (reference value: 41.55%); type: functional
MCF7 [7] = assay: Cell cycle arrest in human MCF7 cells assessed as accumulation at G1 phase at 0.5 uM after 48 hrs by propidium iodide staining based flow cytometry (reference value: 45.21%); type: functional
MCF7 [8] = assay: Cell cycle arrest in human MCF7 cells assessed as accumulation at S phase at 5 uM after 48 hrs by propidium iodide staining based flow cytometry (reference value: 41.55%); type: functional
MCF7 [9] = assay: Induction of apoptosis in human MCF7 cells assessed as early apoptotic cells at 20 uM after 48 hrs by Annexin-V FITC/propidium iodide staining based flow cytometry (reference value: 0.50%); type: functional
MCF7 [10] = assay: Induction of apoptosis in human MCF7 cells assessed as necrotic cells at 10 uM after 48 hrs by Annexin-V FITC/propidium iodide staining based flow cytometry (reference value: 4.69%); type: functional
MCF7 [11] = assay: Cell cycle arrest in human MCF7 cells assessed as accumulation at G2 phase at 5 uM after 48 hrs by propidium iodide staining based flow cytometry (reference value: 13.24%); type: functional
L02 = assay: Cytotoxicity against human L02 cells assessed as reduction in cell viability after 72 hrs by MTT assay; type: functional, cell-based; conditions: L02, 72 h
MCF7 [12] = assay: Cell cycle arrest in human MCF7 cells assessed as accumulation at G1 phase at 2.5 uM after 48 hrs by propidium iodide staining based flow cytometry (reference value: 45.21%); type: functional
MCF7 [13] = assay: Cell cycle arrest in human MCF7 cells assessed as accumulation at G2 phase at 0.5 uM after 48 hrs by propidium iodide staining based flow cytometry (reference value: 13.24%); type: functional
MCF7 [14] = assay: Induction of apoptosis in human MCF7 cells assessed as necrotic cells at 1 uM after 48 hrs by Annexin-V FITC/propidium iodide staining based flow cytometry (reference value: 4.69%); type: functional
MCF7 [15] = assay: Induction of apoptosis in human MCF7 cells assessed as viable cells at 5 uM after 48 hrs by Annexin-V FITC/propidium iodide staining based flow cytometry (reference value: 88.59%); type: functional; conditions: MCF7, 48 h, read-out: Activity
MCF7 [16] = assay: Induction of apoptosis in human MCF7 cells assessed as late apoptotic cells at 10 uM after 48 hrs by Annexin-V FITC/propidium iodide staining based flow cytometry (reference value: 6.22%); type: functional
MCF7 [17] = assay: Cell cycle arrest in human MCF7 cells assessed as accumulation at G1 phase at 1 uM after 48 hrs by propidium iodide staining based flow cytometry (reference value: 45.21%); type: functional
MCF7 [18] = assay: Induction of apoptosis in human MCF7 cells assessed as viable cells at 20 uM after 48 hrs by Annexin-V FITC/propidium iodide staining based flow cytometry (reference value: 88.59%); type: functional; conditions: MCF7, 48 h, read-out: Activity
MCF7 [19] = assay: Induction of apoptosis in human MCF7 cells assessed as late apoptotic cells at 1 uM after 48 hrs by Annexin-V FITC/propidium iodide staining based flow cytometry (reference value: 6.22%); type: functional
SH-SY5Y = assay: Cytotoxicity against human SH-SY5Y cells assessed as reduction in cell viability after 72 hrs by MTT assay; type: functional, cell-based
A549 = assay: Cytotoxicity against human A549 cells assessed as reduction in cell viability after 72 hrs by MTT assay; type: functional, cell-based; conditions: A549, 72 h
MCF7 [20] = assay: Induction of apoptosis in human MCF7 cells assessed as necrotic cells at 2.5 uM after 48 hrs by Annexin-V FITC/propidium iodide staining based flow cytometry (reference value: 4.69%); type: functional
MCF7 [21] = assay: Cell cycle arrest in human MCF7 cells assessed as accumulation at S phase at 0.5 uM after 48 hrs by propidium iodide staining based flow cytometry (reference value: 41.55%); type: functional
MCF7 [22] = assay: Cell cycle arrest in human MCF7 cells assessed as accumulation at G2 phase at 2.5 uM after 48 hrs by propidium iodide staining based flow cytometry (reference value: 13.24%); type: functional
U-87 MG = assay: Cytotoxicity against human U87 cells assessed as reduction in cell viability after 72 hrs by MTT assay; type: functional, cell-based, U-87MG ATCC
MCF7 [23] = assay: Induction of apoptosis in human MCF7 cells assessed as late apoptotic cells at 5 uM after 48 hrs by Annexin-V FITC/propidium iodide staining based flow cytometry (reference value: 6.22%); type: functional
MCF7 [24] = assay: Induction of apoptosis in human MCF7 cells after 48 hrs by Annexin-V FITC/propidium iodide staining based flow cytometry; type: functional, cell-based
MCF7 [25] = assay: Induction of apoptosis in human MCF7 cells assessed as early apoptotic cells at 2.5 uM after 48 hrs by Annexin-V FITC/propidium iodide staining based flow cytometry (reference value: 0.50%); type: functional
MCF7 [26] = assay: Induction of apoptosis in human MCF7 cells assessed as viable cells at 10 uM after 48 hrs by Annexin-V FITC/propidium iodide staining based flow cytometry (reference value: 88.59%); type: functional; conditions: MCF7, 48 h, read-out: Activity
MCF7 [27] = assay: Cell cycle arrest in human MCF7 cells assessed as accumulation at G1 phase after 48 hrs by propidium iodide staining based flow cytometry; type: functional
MCF7 [28] = assay: Induction of apoptosis in human MCF7 cells assessed as necrotic cells at 20 uM after 48 hrs by Annexin-V FITC/propidium iodide staining based flow cytometry (reference value: 4.69%); type: functional
MCF7 [29] = assay: Induction of apoptosis in human MCF7 cells assessed as morphological alteration up to 20 uM after 48 hrs by Hoechst 33258 staining based fluorescence microscopic method; type: functional, cell-based
MCF7 [30] = assay: Induction of apoptosis in human MCF7 cells assessed as early apoptotic cells at 5 uM after 48 hrs by Annexin-V FITC/propidium iodide staining based flow cytometry (reference value: 0.50%); type: functional
MDA-MB-231 = assay: Cytotoxicity against human MDA-MB-231 cells assessed as reduction in cell viability after 72 hrs by MTT assay; type: functional, cell-based; conditions: MDA-MB-231, 72 h
MCF7 [31] = assay: Induction of apoptosis in human MCF7 cells assessed as viable cells at 2.5 uM after 48 hrs by Annexin-V FITC/propidium iodide staining based flow cytometry (reference value: 88.59%); type: functional; conditions: MCF7, 48 h, read-out: Activity
MCF7 [32] = assay: Cytotoxicity against human MCF7 cells assessed as reduction in cell viability after 72 hrs by MTT assay; type: functional, cell-based; conditions: MCF7, 72 h

C[C@H]1[C@H](N2CCN(C(=O)Nc3ccc(OC(F)(F)F)cc3)CC2)O[C@@H]2O[C@@]3(C)CC[C@H]4[C@H](C)CC[C@@H]1[C@@]24OO3
Activity (MCF7 [1]): 33.33%
Activity (MCF7 [2]): 21.51%
Activity (MCF7 [3]): 0.8%
viability at 1 µM (MCF7 [4]): 84.4%
Activity (MCF7 [5]): 76.68%
Activity (MCF7 [6]): 9.2%
Activity (MCF7 [7]): 47.95%
Activity (MCF7 [8]): 15.49%
Activity (MCF7 [9]): 4.78%
Activity (MCF7 [10]): 17.18%
Activity (MCF7 [11]): 7.83%
IC50 (L02): 6.7 µM
Activity (MCF7 [12]): 64.46%
Activity (MCF7 [13]): 12.33%
Activity (MCF7 [14]): 8.1%
viability at 5 µM (MCF7 [15]): 43.5%
Activity (MCF7 [16]): 53.36%
Activity (MCF7 [17]): 56.57%
viability at 20 µM (MCF7 [18]): 16.2%
Activity (MCF7 [19]): 7.01%
IC50 (SH-SY5Y): 3.6 µM
IC50 (A549): 19.9 µM
Activity (MCF7 [20]): 20.85%
Activity (MCF7 [21]): 39.72%
Activity (MCF7 [22]): 9.18%
IC50 (U-87 MG): 19.7 µM
Activity (MCF7 [23]): 33.62%
Activity (MCF7 [24]): Dose-dependent effect
Activity (MCF7 [25]): 0.66%
viability at 10 µM (MCF7 [26]): 28.7%
Activity (MCF7 [27]): Dose-dependent effect
Activity (MCF7 [28]): 10.18%
Activity (MCF7 [29]): Active
Activity (MCF7 [30]): 1.38%
IC50 (MDA-MB-231): 8.4 µM
viability at 2.5 µM (MCF7 [31]): 59.5%
IC50 (MCF7 [32]): 2.1 µM
